Several values for one entry are separate records, joined by “and”; a condition that tells them apart may be missing. Identical values can stand only once.
Tests used:
5-HT2A receptor [1] = target: T1, 5-HT2A receptor (Homo sapiens, UniProt P28223); assay: Prolonged; type: cell-based; settings: for antagonism of 100 nM 5-HT calcium response: 10 μM efavirenz
5-HT2C receptor = target: T2, 5-HT2C receptor (Homo sapiens, UniProt P28335); settings: serum free
T2 sequence (P28335 33-458): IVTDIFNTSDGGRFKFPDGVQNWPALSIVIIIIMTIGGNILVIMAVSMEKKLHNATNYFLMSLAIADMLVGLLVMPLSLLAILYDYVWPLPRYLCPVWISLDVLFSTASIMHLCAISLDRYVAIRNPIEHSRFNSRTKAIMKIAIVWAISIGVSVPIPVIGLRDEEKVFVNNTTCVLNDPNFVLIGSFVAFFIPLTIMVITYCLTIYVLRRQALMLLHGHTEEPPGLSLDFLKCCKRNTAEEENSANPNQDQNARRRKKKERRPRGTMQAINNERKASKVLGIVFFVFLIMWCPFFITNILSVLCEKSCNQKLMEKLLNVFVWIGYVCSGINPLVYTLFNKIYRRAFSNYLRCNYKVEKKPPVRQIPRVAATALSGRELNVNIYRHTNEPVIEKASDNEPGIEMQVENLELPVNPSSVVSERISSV

MAO-A = MAO-A (Homo sapiens, UniProt P21397); assay: Inhibition of monoamine oxidase A activity, kynuramine substrate; type: biochemical; settings: 10 μM
Sequence of MAO-A (P21397 whole entry): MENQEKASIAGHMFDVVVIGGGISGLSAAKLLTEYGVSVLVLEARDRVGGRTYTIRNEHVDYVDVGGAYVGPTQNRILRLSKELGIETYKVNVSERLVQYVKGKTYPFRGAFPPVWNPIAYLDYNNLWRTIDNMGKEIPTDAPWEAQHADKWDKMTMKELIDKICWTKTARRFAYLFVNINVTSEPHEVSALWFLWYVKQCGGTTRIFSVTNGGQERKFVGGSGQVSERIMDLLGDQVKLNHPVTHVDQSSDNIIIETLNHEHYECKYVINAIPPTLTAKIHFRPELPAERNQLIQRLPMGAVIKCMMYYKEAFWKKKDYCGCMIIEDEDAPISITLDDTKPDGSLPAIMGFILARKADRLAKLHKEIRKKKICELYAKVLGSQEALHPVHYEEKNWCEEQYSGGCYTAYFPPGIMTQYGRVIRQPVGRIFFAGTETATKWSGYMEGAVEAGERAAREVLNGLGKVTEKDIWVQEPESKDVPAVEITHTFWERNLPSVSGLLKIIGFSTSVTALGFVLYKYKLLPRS

DAT = settings: cited from earlier work
untransfected CHO cells = assay: Intracellular calcium assay, control cells; type: cell-based; settings: data not shown
r5-HT6 = r5-HT6 (Rattus norvegicus, UniProt P31388); assay: Radioligand displacement by a fixed drug concentration, [3H]LSD; settings: 10 μM efavirenz
Sequence of r5-HT6 (P31388 whole entry): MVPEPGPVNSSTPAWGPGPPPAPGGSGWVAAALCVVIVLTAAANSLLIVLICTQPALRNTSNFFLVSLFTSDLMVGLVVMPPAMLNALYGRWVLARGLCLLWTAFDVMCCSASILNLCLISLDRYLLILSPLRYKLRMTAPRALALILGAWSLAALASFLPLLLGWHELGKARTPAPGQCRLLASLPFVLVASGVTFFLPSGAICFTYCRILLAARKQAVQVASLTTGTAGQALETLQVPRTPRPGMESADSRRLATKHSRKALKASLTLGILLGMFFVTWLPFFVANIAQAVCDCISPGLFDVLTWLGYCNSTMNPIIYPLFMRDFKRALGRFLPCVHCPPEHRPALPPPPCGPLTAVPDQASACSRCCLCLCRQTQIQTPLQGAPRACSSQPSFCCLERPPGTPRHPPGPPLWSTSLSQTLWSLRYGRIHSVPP

5-HT2A receptor [2] = target: T1, 5-HT2A receptor; assay: Competition radioligand binding, concentration-response
h5-HT1A = settings: 10 μM efavirenz; cited from earlier work
h5-HT7 = h5-HT7 (Homo sapiens, UniProt P34969); assay: Radioligand displacement by a fixed drug concentration, [3H]LSD; settings: 10 μM efavirenz
Sequence of h5-HT7 (P34969 whole entry): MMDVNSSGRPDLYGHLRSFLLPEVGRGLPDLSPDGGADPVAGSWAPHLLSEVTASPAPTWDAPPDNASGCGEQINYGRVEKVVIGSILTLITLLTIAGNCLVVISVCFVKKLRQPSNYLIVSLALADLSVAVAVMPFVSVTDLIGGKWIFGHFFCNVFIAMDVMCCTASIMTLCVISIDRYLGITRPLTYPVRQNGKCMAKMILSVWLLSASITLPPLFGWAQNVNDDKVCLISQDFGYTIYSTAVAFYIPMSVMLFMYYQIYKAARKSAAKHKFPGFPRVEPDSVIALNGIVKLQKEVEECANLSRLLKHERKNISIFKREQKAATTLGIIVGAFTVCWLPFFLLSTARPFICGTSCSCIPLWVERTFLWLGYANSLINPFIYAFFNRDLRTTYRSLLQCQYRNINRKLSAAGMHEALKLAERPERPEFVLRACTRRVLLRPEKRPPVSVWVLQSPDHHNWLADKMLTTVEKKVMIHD

5-HT6 receptor = 5-HT6 receptor (Rattus norvegicus, UniProt P31388); assay: Competition radioligand binding, concentration-response
Sequence of 5-HT6 receptor (P31388 whole entry): as the sequence (P31388 whole entry) above

gp5-HT4 = gp5-HT4 (Cavia porcellus, UniProt O70528); settings: 10 μM efavirenz
Sequence of gp5-HT4 (O70528 whole entry): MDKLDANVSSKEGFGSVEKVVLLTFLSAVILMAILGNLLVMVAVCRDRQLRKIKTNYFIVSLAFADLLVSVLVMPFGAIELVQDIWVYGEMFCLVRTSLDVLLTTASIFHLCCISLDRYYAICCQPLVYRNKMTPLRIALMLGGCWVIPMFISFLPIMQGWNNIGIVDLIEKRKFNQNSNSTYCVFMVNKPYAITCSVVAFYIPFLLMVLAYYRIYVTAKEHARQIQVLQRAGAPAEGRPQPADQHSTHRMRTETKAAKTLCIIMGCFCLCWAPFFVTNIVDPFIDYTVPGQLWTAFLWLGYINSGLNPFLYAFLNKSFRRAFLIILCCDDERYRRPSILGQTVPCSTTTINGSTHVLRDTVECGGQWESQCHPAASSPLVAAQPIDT

T1 sequence (P28223 whole entry): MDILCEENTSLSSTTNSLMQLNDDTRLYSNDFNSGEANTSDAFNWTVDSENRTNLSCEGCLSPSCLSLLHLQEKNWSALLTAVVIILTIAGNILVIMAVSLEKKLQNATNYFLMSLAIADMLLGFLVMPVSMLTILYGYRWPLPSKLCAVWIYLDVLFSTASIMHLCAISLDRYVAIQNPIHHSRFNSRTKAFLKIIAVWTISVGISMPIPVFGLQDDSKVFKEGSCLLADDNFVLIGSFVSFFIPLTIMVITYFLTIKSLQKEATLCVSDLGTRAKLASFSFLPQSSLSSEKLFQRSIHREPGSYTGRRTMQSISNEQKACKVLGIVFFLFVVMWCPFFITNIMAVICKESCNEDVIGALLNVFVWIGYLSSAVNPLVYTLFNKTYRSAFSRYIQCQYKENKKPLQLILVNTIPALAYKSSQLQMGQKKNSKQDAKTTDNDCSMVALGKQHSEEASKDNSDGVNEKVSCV

O=C1Nc2ccc(Cl)cc2[C@@](C#CC2CC2)(C(F)(F)F)O1 [efavirenz, (4S)-6-chloro-4-(2-cyclopropylethynyl)-4-(trifluoromethyl)-2,4-dihydro-1H-3,1-benzoxazin-2-one]
antagonism of 100 nM 5-HT calcium response (5-HT2A receptor [1]; cells pretreated 3 days with 30 μM 5-HT): 49%
antagonism of 100 nM 5-HT calcium response (5-HT2A receptor [1]; cells pretreated 3 days with 30 μM efavirenz): 49%
antagonism of 100 nM 5-HT calcium response (5-HT2A receptor [1]; cells pretreated 3 days with DMSO vehicle): 48%
reduction of the 100 μM maximal 5-HT response (5-HT2A receptor [1]; 3 day exposure to 30 μM, vs 3 day vehicle): 81%
concentration completely suppressing the 5-HT agonist effect (5-HT2C receptor; 0.03 nM 5-HT (EC50)): ≥ 60 µM
concentration inhibiting the 5-HT agonist effect (5-HT2C receptor; 0.03 nM 5-HT (EC50)): ≥ 10 µM
concentration with no significant effect on 5-HT responses (5-HT2C receptor; 0.03 nM 5-HT (EC50)): up to 3 μM
agonist activity (5-HT2C receptor): did not have any agonist activity
decrease of MAO-A activity (MAO-A): 36 ± 1.7%
transporter function (DAT): functioned as a DAT and SERT blocker
Gq-mediated response (untransfected CHO cells): No Gq-mediated response
displacement of specifically bound radioligand (r5-HT6): ≥ 75%
Ki (5-HT2A receptor [2]; affinity (Ki), [3H]MSP competition): 4.4 µM and 4.37 µM
pseudo Hill slope (5-HT2A receptor [2]; competition binding): −1.39 ± −0.18
interaction (radioligand displacement) (h5-HT1A): less pronounced or no detectable interaction
interaction (radioligand displacement) (h5-HT7): less pronounced or no detectable interaction
Ki (5-HT6 receptor): 2.2 ± 0.27 µM
pseudo Hill slope (5-HT6 receptor; competition binding): −1.36 ± −0.14
interaction (radioligand displacement) (gp5-HT4): less pronounced or no detectable interaction

Source: PMC4914440 (Pharmacological research, 2016)
